Reference: ChEMBL document CHEMBL3758169, “4-Aminoindazolyl-dihydrofuro[3,4-d]pyrimidines as non-covalent inhibitors of mutant epidermal growth factor receptor tyrosine kinase” (Bioorg Med Chem Lett, 2016)

Assays:
[1] = biological target: Serine/threonine-protein kinase PAK 4 (Homo sapiens) (UniProt O96013); experiment: Inhibition of PAK4 (unknown origin) at 100 nM
[2] = biological target: T1, Epidermal growth factor receptor (Homo sapiens, UniProt P00533); experiment: Inhibition of wild type EGFR (unknown origin)
[3] = biological target: Serine/threonine-protein kinase D1 (Homo sapiens) (UniProt Q15139); experiment: Inhibition of PKD1 (unknown origin) at 100 nM
[4] = biological target: Cyclin-dependent kinase 5/CDK5 activator 1 (Homo sapiens) (UniProt Q00535+Q15078); experiment: Inhibition of CDK5/p25 (unknown origin) at 100 nM; format: protein-complex assay
[5] = biological target: Tyrosine-protein kinase JAK2 (Homo sapiens) (UniProt O60674); experiment: Inhibition of JAK2 JH1JH2 domain (unknown origin) at 100 nM
[6] = biological target: Macrophage colony-stimulating factor 1 receptor (Homo sapiens) (UniProt P07333); experiment: Inhibition of CSF1R (unknown origin) at 100 nM
[7] = biological target: Mitogen-activated protein kinase 14 (Homo sapiens) (UniProt Q16539); experiment: Inhibition of p38alpha (unknown origin) by direct binding assay at 100 nM
[8] = biological target: Serine/threonine-protein kinase mTOR (Homo sapiens) (UniProt P42345); experiment: Inhibition of mTOR (unknown origin) at 100 nM
[9] = biological target: Inhibitor of nuclear factor kappa-B kinase subunit beta (Homo sapiens) (UniProt O14920); experiment: Inhibition of IKKbeta (unknown origin) at 100 nM
Chain of Inhibitor of nuclear factor kappa-B kinase subunit beta (Homo sapiens) (O14920 whole entry): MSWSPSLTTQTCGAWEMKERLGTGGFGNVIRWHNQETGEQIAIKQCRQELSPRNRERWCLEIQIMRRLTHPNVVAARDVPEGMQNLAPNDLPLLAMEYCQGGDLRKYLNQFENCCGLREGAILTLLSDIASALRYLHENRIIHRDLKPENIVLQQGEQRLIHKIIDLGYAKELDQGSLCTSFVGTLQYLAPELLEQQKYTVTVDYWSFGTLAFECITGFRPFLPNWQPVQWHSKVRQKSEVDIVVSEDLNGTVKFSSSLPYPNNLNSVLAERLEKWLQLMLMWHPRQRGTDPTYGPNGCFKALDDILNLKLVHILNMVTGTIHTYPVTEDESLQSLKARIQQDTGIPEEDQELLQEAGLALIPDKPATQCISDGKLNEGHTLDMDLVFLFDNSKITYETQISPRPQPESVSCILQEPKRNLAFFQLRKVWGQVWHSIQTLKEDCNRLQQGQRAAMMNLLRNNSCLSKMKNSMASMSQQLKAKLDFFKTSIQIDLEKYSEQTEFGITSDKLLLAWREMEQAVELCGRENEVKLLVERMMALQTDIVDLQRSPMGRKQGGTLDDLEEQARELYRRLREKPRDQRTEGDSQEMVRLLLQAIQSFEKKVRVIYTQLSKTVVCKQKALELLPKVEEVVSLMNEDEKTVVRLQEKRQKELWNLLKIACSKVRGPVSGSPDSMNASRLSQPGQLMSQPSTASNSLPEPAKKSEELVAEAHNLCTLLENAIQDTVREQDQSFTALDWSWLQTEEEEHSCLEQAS

[10] = tested on: Epidermal growth factor receptor (Homo sapiens), P00533 [L858R]; experiment: Inhibition of EGFR L858R mutant (unknown origin) at 100 nM; format: protein assay
[11] = biological target: Casein kinase I isoform alpha (Homo sapiens) (UniProt P48729); experiment: Inhibition of CK1alpha1 (unknown origin) at 100 nM
Chain of Casein kinase I isoform alpha (Homo sapiens) (P48729 2-337 limits assumed): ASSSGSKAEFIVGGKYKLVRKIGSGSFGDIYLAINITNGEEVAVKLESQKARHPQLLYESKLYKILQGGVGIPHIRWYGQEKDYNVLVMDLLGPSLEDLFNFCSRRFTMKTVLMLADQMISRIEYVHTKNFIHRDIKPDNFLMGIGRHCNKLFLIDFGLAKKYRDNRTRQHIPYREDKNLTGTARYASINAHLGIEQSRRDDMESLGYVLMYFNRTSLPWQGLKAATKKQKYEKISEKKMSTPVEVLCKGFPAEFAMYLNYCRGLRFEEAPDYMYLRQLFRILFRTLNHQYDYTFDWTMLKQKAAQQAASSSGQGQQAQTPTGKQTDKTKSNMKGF

[12] = biological target: Tyrosine-protein kinase ABL1 (Homo sapiens) (UniProt P00519); experiment: Inhibition of ABL (unknown origin) at 100 nM
Chain of Tyrosine-protein kinase ABL1 (Homo sapiens) (P00519 whole entry): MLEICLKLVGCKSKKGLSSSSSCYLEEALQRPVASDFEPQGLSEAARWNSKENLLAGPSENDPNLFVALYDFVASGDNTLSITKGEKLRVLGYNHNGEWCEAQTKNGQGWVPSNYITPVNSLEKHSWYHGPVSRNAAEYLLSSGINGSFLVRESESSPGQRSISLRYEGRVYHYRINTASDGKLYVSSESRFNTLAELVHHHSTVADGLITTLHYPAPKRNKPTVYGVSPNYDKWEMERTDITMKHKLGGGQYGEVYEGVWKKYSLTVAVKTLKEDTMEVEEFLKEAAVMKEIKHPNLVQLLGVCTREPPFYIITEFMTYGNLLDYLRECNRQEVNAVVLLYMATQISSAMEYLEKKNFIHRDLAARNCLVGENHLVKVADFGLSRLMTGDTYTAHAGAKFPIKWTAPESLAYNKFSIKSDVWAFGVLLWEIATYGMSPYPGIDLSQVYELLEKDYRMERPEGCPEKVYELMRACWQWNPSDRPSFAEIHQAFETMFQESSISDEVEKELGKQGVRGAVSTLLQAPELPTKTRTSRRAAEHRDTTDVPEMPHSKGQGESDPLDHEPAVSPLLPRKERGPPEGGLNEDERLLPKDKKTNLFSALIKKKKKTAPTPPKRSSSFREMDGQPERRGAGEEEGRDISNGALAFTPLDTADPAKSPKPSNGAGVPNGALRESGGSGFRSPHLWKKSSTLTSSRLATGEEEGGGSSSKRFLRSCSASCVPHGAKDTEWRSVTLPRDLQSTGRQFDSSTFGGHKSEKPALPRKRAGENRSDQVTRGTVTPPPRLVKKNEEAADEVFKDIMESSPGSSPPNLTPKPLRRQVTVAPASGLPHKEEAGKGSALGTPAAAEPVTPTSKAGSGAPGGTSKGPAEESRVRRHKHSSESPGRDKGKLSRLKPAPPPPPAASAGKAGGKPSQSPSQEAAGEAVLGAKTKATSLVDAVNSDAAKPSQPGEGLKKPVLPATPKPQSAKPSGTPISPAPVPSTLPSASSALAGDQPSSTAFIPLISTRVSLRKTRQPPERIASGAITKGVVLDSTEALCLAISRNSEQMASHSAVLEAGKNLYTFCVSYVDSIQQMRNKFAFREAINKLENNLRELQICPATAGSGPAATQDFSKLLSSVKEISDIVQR

[13] = biological target: Mast/stem cell growth factor receptor Kit (Homo sapiens) (UniProt P10721); experiment: Inhibition of KIT (unknown origin) at 100 nM
[14] = biological target: Aurora kinase B (Homo sapiens) (UniProt Q96GD4); experiment: Inhibition of Aurora B (unknown origin) at 100 nM
Homo sapiens [15] = organism: Homo sapiens; experiment: Inhibition of PKA (unknown origin) at 100 nM
[16] = biological target: Epidermal growth factor receptor (Homo sapiens, UniProt P00533, L858R); experiment: Inhibition of EGFR L858R mutant (unknown origin); format: protein assay
[17] = biological target: Ephrin type-A receptor 2 (Homo sapiens) (UniProt P29317); experiment: Inhibition of EPHA2 (unknown origin) at 100 nM
Chain of Ephrin type-A receptor 2 (Homo sapiens) (P29317 whole entry): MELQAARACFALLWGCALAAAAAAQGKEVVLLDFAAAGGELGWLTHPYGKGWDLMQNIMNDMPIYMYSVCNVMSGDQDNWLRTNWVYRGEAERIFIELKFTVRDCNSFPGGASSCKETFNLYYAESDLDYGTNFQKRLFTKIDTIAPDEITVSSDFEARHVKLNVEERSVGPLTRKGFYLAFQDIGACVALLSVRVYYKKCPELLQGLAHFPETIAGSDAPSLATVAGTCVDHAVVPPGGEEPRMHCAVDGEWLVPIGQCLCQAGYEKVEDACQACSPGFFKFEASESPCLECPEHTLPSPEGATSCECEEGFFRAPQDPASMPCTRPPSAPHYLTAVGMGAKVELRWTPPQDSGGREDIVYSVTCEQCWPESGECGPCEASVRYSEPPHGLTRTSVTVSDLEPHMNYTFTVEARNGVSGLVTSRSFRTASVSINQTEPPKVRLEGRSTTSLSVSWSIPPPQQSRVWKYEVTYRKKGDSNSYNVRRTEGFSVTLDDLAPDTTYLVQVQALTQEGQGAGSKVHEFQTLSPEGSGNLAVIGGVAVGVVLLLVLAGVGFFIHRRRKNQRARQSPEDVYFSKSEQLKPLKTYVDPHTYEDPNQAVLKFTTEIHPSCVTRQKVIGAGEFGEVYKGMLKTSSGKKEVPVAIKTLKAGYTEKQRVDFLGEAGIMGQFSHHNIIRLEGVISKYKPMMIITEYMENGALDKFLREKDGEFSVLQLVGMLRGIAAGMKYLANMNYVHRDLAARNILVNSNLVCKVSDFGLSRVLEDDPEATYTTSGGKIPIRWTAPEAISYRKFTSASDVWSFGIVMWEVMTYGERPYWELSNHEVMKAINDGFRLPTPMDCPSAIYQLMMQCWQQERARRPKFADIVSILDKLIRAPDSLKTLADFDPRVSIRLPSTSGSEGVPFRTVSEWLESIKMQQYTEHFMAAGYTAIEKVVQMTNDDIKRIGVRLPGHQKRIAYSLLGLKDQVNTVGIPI

[18] = biological target: Ribosomal protein S6 kinase beta-1 (Homo sapiens) (UniProt P23443); experiment: Inhibition of p70S6K(unknown origin) at 100 nM
[19] = biological target: T1, Epidermal growth factor receptor; experiment: Inhibition of EGFR deletion (746 to 750 residues) mutant (unknown origin); format: protein assay
Target sequence in this assay (P00533 25-1210 limits assumed, change not shown): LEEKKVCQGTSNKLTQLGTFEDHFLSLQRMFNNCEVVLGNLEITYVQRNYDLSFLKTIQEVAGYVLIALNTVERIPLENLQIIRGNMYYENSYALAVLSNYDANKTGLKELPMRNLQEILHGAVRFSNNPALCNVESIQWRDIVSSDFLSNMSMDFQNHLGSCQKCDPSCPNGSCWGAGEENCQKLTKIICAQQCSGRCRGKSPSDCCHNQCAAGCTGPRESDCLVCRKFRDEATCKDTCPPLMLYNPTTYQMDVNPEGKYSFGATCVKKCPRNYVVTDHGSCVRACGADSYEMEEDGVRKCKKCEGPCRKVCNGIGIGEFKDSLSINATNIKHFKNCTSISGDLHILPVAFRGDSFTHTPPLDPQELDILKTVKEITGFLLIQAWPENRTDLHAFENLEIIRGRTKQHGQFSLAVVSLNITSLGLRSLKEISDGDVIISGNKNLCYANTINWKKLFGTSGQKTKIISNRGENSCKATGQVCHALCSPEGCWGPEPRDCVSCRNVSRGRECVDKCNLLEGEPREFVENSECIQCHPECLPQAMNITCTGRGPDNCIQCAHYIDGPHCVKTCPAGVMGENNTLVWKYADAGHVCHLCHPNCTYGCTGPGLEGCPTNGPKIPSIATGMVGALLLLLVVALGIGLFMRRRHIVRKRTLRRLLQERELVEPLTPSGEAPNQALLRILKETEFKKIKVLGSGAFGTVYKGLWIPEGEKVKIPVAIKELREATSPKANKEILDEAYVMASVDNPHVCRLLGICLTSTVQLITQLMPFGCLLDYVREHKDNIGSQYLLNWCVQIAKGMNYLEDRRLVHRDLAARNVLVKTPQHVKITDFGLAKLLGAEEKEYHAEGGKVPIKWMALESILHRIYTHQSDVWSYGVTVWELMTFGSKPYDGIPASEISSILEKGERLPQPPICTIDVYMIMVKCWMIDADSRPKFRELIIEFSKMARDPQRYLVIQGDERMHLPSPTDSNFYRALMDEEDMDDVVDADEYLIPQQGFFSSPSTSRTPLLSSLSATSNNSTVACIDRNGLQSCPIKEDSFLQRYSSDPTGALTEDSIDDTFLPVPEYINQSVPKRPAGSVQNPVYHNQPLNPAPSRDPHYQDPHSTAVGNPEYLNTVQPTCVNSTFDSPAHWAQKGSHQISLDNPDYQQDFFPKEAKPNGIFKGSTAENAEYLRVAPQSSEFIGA

[20] = biological target: Leucine-rich repeat serine/threonine-protein kinase 2 (Homo sapiens) (UniProt Q5S007); experiment: Inhibition of LRRK2 (unknown origin) at 100 nM
[21] = biological target: Serine/threonine-protein kinase TBK1 (Homo sapiens) (UniProt Q9UHD2); experiment: Inhibition of TBK1 (unknown origin) at 100 nM
[22] = Volume of distribution at steady state in rat; format: ADME, organism-based; conditions: in vivo, read-out: Vdss
[23] = biological target: Receptor-type tyrosine-protein kinase FLT3 (Homo sapiens) (UniProt P36888); experiment: Inhibition of FLT3 (unknown origin) at 100 nM
[24] = biological target: Interleukin-1 receptor-associated kinase 4 (Homo sapiens) (UniProt Q9NWZ3); experiment: Inhibition of IRAK4 (unknown origin) at 100 nM
[25] = biological target: Mitogen-activated protein kinase 8 (Homo sapiens) (UniProt P45983); experiment: Inhibition of JNK1 alpha1 (unknown origin) at 100 nM
[26] = Efflux ratio of permeability from basolateral to apical side over apical to basolateral side in MDCK cells; format: ADME, cell-based, Canis lupus familiaris; conditions: dog
[27] = tested on: RAF proto-oncogene serine/threonine-protein kinase (Homo sapiens), P04049 [Y340D,Y341D]; experiment: Inhibition of RAF1 Y340D/Y341D double mutant (unknown origin) at 100 nM
[28] = biological target: Mitogen-activated protein kinase kinase kinase 8 (Homo sapiens) (UniProt P41279); experiment: Inhibition of COT (unknown origin) at 100 nM
[29] = biological target: SRSF protein kinase 2 (Homo sapiens) (UniProt P78362); experiment: Inhibition of SRPK2 (unknown origin) at 100 nM
TAK1/TAB1 (Homo sapiens) = TAK1/TAB1 (Homo sapiens) (UniProt Q15750+O43318); experiment: Inhibition of TAK1-TAB1 (unknown origin) at 100 nM; format: protein-complex assay
[30] = biological target: Inhibitor of nuclear factor kappa-B kinase subunit alpha (Homo sapiens) (UniProt O15111); experiment: Inhibition of IKKalpha (unknown origin) at 100 nM
[31] = biological target: T1, Epidermal growth factor receptor; experiment: Inhibition of EGFR T790M/deletion (746 to 750 residues) mutant (unknown origin); format: protein assay
Target sequence in this assay (P00533 25-1210 limits assumed, change not shown): as above

Homo sapiens [32] = organism: Homo sapiens; experiment: Inhibition of PKCbeta1 (unknown origin) at 100 nM
[33] = biological target: Hepatocyte growth factor receptor (Homo sapiens) (UniProt P08581); experiment: Inhibition of MET (unknown origin) at 100 nM
[34] = tested on: Epidermal growth factor receptor (Homo sapiens), P00533 [L861Q]; experiment: Inhibition of EGFR L861Q mutant (unknown origin) at 100 nM; format: protein assay
[35] = biological target: Tyrosine-protein kinase SYK (Homo sapiens) (UniProt P43405); experiment: Inhibition of SYK (unknown origin) at 100 nM
[36] = biological target: Insulin receptor (Homo sapiens) (UniProt P06213); experiment: Inhibition of INSR (unknown origin) at 100 nM
[37] = biological target: Platelet-derived growth factor receptor beta (Homo sapiens) (UniProt P09619); experiment: Inhibition of PDGFRbeta (unknown origin) at 100 nM
[38] = biological target: Proto-oncogene tyrosine-protein kinase Src (Homo sapiens) (UniProt P12931); experiment: Inhibition of SRC (unknown origin) at 100 nM
Chain of Proto-oncogene tyrosine-protein kinase Src (Homo sapiens) (P12931 2-536 limits assumed): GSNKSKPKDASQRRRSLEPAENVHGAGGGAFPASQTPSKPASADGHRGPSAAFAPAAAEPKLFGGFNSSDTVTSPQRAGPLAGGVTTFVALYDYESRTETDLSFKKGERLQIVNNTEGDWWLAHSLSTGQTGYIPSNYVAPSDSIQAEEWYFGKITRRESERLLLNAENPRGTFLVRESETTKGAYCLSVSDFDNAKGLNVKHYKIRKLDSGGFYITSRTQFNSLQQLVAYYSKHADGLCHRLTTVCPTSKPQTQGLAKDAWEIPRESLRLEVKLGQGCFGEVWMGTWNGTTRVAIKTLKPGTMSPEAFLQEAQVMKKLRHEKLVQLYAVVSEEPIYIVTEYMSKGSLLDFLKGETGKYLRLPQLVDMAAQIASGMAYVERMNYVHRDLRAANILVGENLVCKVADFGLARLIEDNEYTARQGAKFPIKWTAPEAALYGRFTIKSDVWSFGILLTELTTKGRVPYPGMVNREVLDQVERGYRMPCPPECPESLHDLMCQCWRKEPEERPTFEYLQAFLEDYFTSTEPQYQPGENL

[39] = biological target: Tyrosine-protein kinase Lyn (Homo sapiens) (UniProt P07948); experiment: Inhibition of LYN (unknown origin) at 100 nM
[40] = biological target: Epidermal growth factor receptor (Homo sapiens, UniProt P00533, L858R/T790M); experiment: Inhibition of EGFR T790M/L858R mutant (unknown origin); format: protein assay
[41] = biological target: Mitogen-activated protein kinase kinase kinase 14 (Homo sapiens) (UniProt Q99558); experiment: Inhibition of NIK (unknown origin) at 100 nM
[42] = biological target: Fibroblast growth factor receptor 1 (Homo sapiens) (UniProt P11362); experiment: Inhibition of FGFR1 (unknown origin) at 100 nM
[43] = biological target: High affinity nerve growth factor receptor (Homo sapiens) (UniProt P04629); experiment: Inhibition of TRKA (unknown origin) at 100 nM

CC1(C)OCc2c(Nc3n[nH]c4c(Cl)cccc34)nc(-c3cn[nH]c3)nc21
inhibition [1]: -3.1% | Ki [2]: 1.5 nM | inhibition [3]: 8.4% | inhibition [4]: 7.8% | inhibition [5]: 14% | inhibition [6]: 19.1% | inhibition [7]: 22.4% | inhibition [8]: 8.7% | inhibition [9]: 7% | inhibition [10]: 90.5% | inhibition [11]: -3.3% | inhibition [12]: 35.3% | inhibition [13]: 4.8% | inhibition [14]: 16.4% | inhibition (Homo sapiens [15]): 88.7% | Ki [16]: 1.3 nM | inhibition [17]: 11.8% | inhibition [18]: 10.4% | Ki [19]: 0.4 nM | inhibition [20]: 7.5% | inhibition [21]: 9.4% | Vd [22]: 3.6 L/kg | inhibition [23]: 67.3% | inhibition [24]: 16.9% | inhibition [25]: 4.1% | efflux ratio [26]: 1.6 | inhibition [27]: 25.3% | inhibition [28]: 7.4% | inhibition [29]: 12.6% | inhibition (TAK1/TAB1 (Homo sapiens)): 3.1% | inhibition [30]: -1.8% | Ki [31]: 1.3 nM | inhibition (Homo sapiens [32]): 33% | inhibition [33]: 7.7% | inhibition [34]: 95.2% | inhibition [35]: 7% | inhibition [36]: 2% | inhibition [37]: 10.8% | inhibition [38]: 66.5% | inhibition [39]: 94% | Ki [40]: 2 nM | inhibition [41]: -0.3% | inhibition [42]: 85.1% | inhibition [43]: 12.6%

CC1(C)OCc2c(Nc3n[nH]c4ccccc34)nc(-c3cn[nH]c3)nc21
inhibition [1]: 0.2% | Ki [2]: 0.6 nM | inhibition [3]: 2.1% | inhibition [4]: 0% | inhibition [5]: 1.9% | inhibition [6]: 17.5% | inhibition [7]: 20.6% | inhibition [8]: -1.6% | inhibition [9]: 4.8% | inhibition [10]: 97.7% | inhibition [11]: 6.9% | inhibition [12]: 54.1% | inhibition [13]: 13.3% | inhibition [14]: -2.5% | inhibition (Homo sapiens [15]): 78.8% | Ki [16]: 0.5 nM | inhibition [17]: 12.2% | inhibition [18]: 4.3% | Ki [19]: 0.2 nM | inhibition [20]: 13.2% | inhibition [21]: 7.9% | Vd [22]: 6 L/kg | inhibition [23]: 16.5% | inhibition [24]: 4.3% | inhibition [25]: -9.9% | efflux ratio [26]: 2.4 | inhibition [27]: 16.6% | inhibition [28]: 9.1% | inhibition [29]: -8.1% | inhibition (TAK1/TAB1 (Homo sapiens)): 8.9% | inhibition [30]: -5.3% | Ki [31]: 1.6 nM | inhibition (Homo sapiens [32]): 35.1% | inhibition [33]: 7.9% | inhibition [34]: 99.7% | inhibition [35]: 0.4% | inhibition [36]: 5.4% | inhibition [37]: 35.2% | inhibition [38]: 47.3% | inhibition [39]: 89.9% | Ki [40]: 2 nM | inhibition [41]: 18% | inhibition [42]: 27.7% | inhibition [43]: 10.2%
